# Reference: patent US20250213494A1, “METHODS AND COMPOSITIONS FOR POTENTIATION OF A LIGAND” (priority 2022, published 2025)
# Test system: RXFP1 gene expression in human fibroblast like synoviocytes
# Assay: RXFP1 gene expression by qPCR after corticosteroid treatment under fibrotic conditions
# Format: cell-based
# Settings: qPCR (FIG. 3)
# Excerpt: RXFP1 gene expression after treatment with (left) dexamethasone, (middle) methylprednisolone, and (right) cortisone under fibrotic conditions.
smiles,measurement,value
C[C@]12CCC(=O)C=C1CC[C@@H]1[C@@H]2C(=O)C[C@@]2(C)[C@H]1CC[C@]2(O)C(=O)CO [cortisone],RXFP1 gene expression,increases RXFP1 gene expression
